Measurements taken from ChEMBL document CHEMBL3046376, “Epimerization of epigallocatechin gallate to gallocatechin gallate and its anti-diabetic activity” (2013).
Calls of active or inactive are those of the source. The rule behind the calls is not given here.

What was measured:
Rattus norvegicus [1] = assay: Antidiabetic activity in Sprague-Dawley Rattus norvegicus (rat) STZ-induced diabetic model assessed as decrease in oral glucose-induced plasma glucose level at 5% administered QD for 6 weeks prior to glucose-challenge measured after 120 min by oral glucose tolerence test relative to control; assay type: functional, organism-based
Rattus norvegicus [2] = assay: Antidiabetic activity in Sprague-Dawley Rattus norvegicus (rat) STZ-induced diabetic model assessed as decrease in oral glucose-induced plasma insulin level at 5% administered QD for 12 weeks prior to glucose-challenge measured after 120 min by oral glucose tolerance test relative to control; assay type: functional, organism-based
Rattus norvegicus [3] = assay: Antidiabetic activity in Sprague-Dawley Rattus norvegicus (rat) assessed as STZ-induced body weight at 5% administered QD for 12 weeks (reference value: 268.6 +/- 9.3 g); assay type: functional
Rattus norvegicus [4] = assay: Antidiabetic activity in Sprague-Dawley Rattus norvegicus (rat) assessed as STZ-induced fasting plasma glucose level at 5% administered QD for 12 weeks (reference value: 318.4 +/- 11.9 mg/dl); assay type: functional
Rattus norvegicus [5] = assay: Antidiabetic activity in Sprague-Dawley Rattus norvegicus (rat) STZ-induced diabetic model assessed as decrease in oral glucose-induced plasma insulin level at 5% administered QD for 6 weeks prior to glucose-challenge measured after 120 min by oral glucose tolerance test relative to control; assay type: functional, organism-based
Rattus norvegicus [6] = assay: Antidiabetic activity in Sprague-Dawley Rattus norvegicus (rat) assessed as STZ-induced fasting plasma free fatty acid level at 5% administered QD for 12 weeks (reference value: 230.8 +/- 16.6 uM); assay type: functional
Rattus norvegicus [7] = assay: Antidiabetic activity in Sprague-Dawley Rattus norvegicus (rat) assessed as STZ-induced fasting plasma insulin level at 5% administered QD for 12 weeks (reference value: 13.5 +/- 1.6 uU/ml); assay type: functional
Rattus norvegicus [8] = assay: Antidiabetic activity in Sprague-Dawley Rattus norvegicus (rat) STZ-induced diabetic model assessed as decrease in oral glucose-induced plasma glucose level at 5% administered QD for 12 weeks prior to glucose-challenge measured after 120 min by oral glucose tolerance test relative to control; assay type: functional, organism-based
Rattus norvegicus [9] = assay: Antidiabetic activity in Sprague-Dawley Rattus norvegicus (rat) assessed as STZ-induced fasting plasma triglyceride level at 5% administered QD for 12 weeks (reference value: 54.4 +/- 12.3 […]); assay type: functional

SMILES	Activity (Rattus norvegicus [1])	Activity (Rattus norvegicus [2])	Activity (Rattus norvegicus [3]) [g]	Activity (Rattus norvegicus [4]) [mg/dL]	Activity (Rattus norvegicus [5])	Activity (Rattus norvegicus [6]) [µM]	Activity (Rattus norvegicus [7]) [uU/ml]	Activity (Rattus norvegicus [8])	Activity (Rattus norvegicus [9]) [mg/dL]
O=C(O[C@@H]1Cc2c(O)cc(O)cc2O[C@@H]1c1cc(O)c(O)c(O)c1)c1cc(O)c(O)c(O)c1 [EPIGALOCATECHIN GALLATE]	Active	Active	251.5	169.6	Active	151.1	10.2	Active	47.9
O=C(O[C@@H]1Cc2c(O)cc(O)cc2O[C@H]1c1cc(O)c(O)c(O)c1)c1cc(O)c(O)c(O)c1 [GALLOCATECHIN GALLATE]	Active	Active	247.7	154.3	Active	133.5	8.5	Active	38.3
